In this test the target is T1, human orexin-2 receptor (OX2R) (Homo sapiens, UniProt O43614).
T1 construct: expressed in transfected cells
T1 sequence (O43614 1-444): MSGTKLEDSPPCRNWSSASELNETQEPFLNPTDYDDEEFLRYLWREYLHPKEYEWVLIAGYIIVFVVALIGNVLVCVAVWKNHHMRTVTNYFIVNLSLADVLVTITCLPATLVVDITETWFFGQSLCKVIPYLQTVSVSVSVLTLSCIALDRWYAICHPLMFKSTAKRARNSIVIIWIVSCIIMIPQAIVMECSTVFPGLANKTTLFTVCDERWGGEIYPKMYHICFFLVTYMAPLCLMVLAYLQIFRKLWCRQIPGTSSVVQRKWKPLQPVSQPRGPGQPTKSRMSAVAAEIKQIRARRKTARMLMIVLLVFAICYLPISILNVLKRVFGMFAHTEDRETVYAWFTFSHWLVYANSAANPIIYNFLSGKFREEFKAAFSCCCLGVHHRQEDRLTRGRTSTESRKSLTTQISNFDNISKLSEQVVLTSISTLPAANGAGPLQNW
Description: Human OX2R IP1 assay. The class given is cell-based. To be noted: T-Rex CHO cells stably overexpressing human OX2R; inositol monophosphate (IP1) accumulation, 1 hr at 37 degrees C; mean EC50. How it is done: T-Rex CHO cells stably overexpressing the human orexin-2 receptor (OX2R) were induced overnight with 1 μg/mL of doxycycline in a T225 flask. 24 hours post induction, cells were lifted with accutase and plated into a 384-well proxy plate at 30,000 cells/well. Cells were then treated with different test compounds in 1× stimulation buffer containing 10 mM Hepes, 1 mM CaCl2), 0.5 mM MgCl2, 4.2 mM KCl, 146 mM NaCl, 5.5 mM glucose, and 50 mM LiCl, pH 7.4, for 1 hr at 37 degrees C. Following incubation, the reaction was terminated by the addition of detection mix, which is composed of IP1-d2 and anti-IP1-cryptate diluted in lysis buffer as well as 1× stimulation buffer. The plates were allowed to incubate for 1 hour at room temperature and were then read in the EnVision® multimode plate reader, measuring inositol phosphate levels.
Cisbio IP1 is a cell-based functional assay quantifying the accumulation of inositol monophosphate (IP), a metabolite released as a result of orexin 2 receptor activation through the phospholipase C-Gq signaling pathway. This is a competitive immunoassay in which the IP1 produced by the cells upon receptor activation competes with the IP1 analog coupled to the d2 fluorophore (acceptor) for binding to an anti-IP1 monoclonal antibody labeled with Eu cryptate (donor). The measured HTRF-FRET based signal is inversely proportional to the IP1 concentration produced.
The EC50 values reported in Table 2 were obtained according to the human OX2R IP1 assay described above. Data are the mean EC50 values ±S.E.M.

Molecules are shown by their SMILES. Where only a bound is given, the exact number is not on record here.

One may read the EC50 as the concentration at which the effect is half-maximal. Lower therefore signals a more potent agent. Compound `O=C1COc2cc3[nH]ncc3cc2C2CCC(CC2)OCC2[C@@H](NS(=O)(=O)C(F)(F)F)CCN12` (stereo partly drawn) [Compound 5] returned an EC50 of 100 to 1000 nM.
With `CS(=O)(=O)N[C@H]1CCN2C(=O)COc3cc4[nH]ncc4cc3[C@H]3CC[C@H](CC3)OC[C@@H]12` [Compound 6] the figure was 100 to 1000 nM; with `CS(=O)(=O)N[C@H]1CCCN2C(=O)COc3cc4[nH]ncc4cc3[C@H]3CC[C@H](CC3)OC[C@@H]12` [Compound 10], below 100 nM.
